Reference: ChEMBL document CHEMBL3994568 (2016)
In brackets after ≈: the same amount, converted by molar mass. Activity calls are given as the source filed them. The calls are words filed in the database; no cut-off is given here.

How the values were obtained:
Bacillus = test: Antibacterial activity against Bacillus proteus ATCC 13315 after 24 hrs by two-fold microbroth dilution method; type: functional; conditions: ATCC 13315, 24 h
Escherichia coli = test: Antibacterial activity against Escherichia coli JM109 after 24 hrs by two-fold microbroth dilution method; type: functional; conditions: JM109, 24 h
Pseudomonas aeruginosa = test: Antibacterial activity against Pseudomonas aeruginosa ATCC 27853 after 24 hrs by two-fold microbroth dilution method; type: functional; conditions: ATCC 27853, 24 h
[1] = Antibacterial activity against Eberthella typhosa ATCC 14028 after 24 hrs by two-fold microbroth dilution method; type: functional; conditions: ATCC 14028, 24 h
Staphylococcus aureus [2] = test: Antibacterial activity against methicillin-resistant Staphylococcus aureus N315 after 24 hrs by two-fold microbroth dilution method; type: functional; conditions: N315, 24 h
Staphylococcus aureus [3] = test: Antibacterial activity against Staphylococcus aureus ATCC 25923 after 24 hrs by two-fold microbroth dilution method; type: functional; conditions: ATCC 25923, 24 h
Bacillus spizizenii = test: Antibacterial activity against Bacillus subtilis ATCC 6633 after 24 hrs by two-fold microbroth dilution method; type: functional; conditions: ATCC 6633, 24 h
Micrococcus luteus = test: Antibacterial activity against Micrococcus luteus ATCC 4698 after 24 hrs by two-fold microbroth dilution method; type: functional; conditions: NCTC 2665, 24 h
Cyberlindnera jadinii = test: Antifungal activity against Candida utilis ATCC 9950 after 24 hrs by two-fold microbroth dilution method; type: functional; conditions: Williopsis jadinii, ATCC 9950, 24 h
Aspergillus flavus = test: Antifungal activity against Aspergillus flavus ATCC 204304 after 24 hrs by two-fold microbroth dilution method; type: functional; conditions: ATCC 204304, 24 h
Saccharomyces cerevisiae = test: Antifungal activity against Saccharomyces cerevisiae ATCC 9763 after 24 hrs by two-fold microbroth dilution method; type: functional; conditions: ATCC 9763, 24 h
Candida albicans = test: Antifungal activity against Candida albicans ATCC 10231 after 24 hrs by two-fold microbroth dilution method; type: functional; conditions: ATCC 10231, 24 h
Pichia norvegensis = test: Antifungal activity against Candida mycoderma ATCC 9888 after 24 hrs by two-fold microbroth dilution method; type: functional; conditions: ATCC 9888, 24 h
HEp-2 = test: Cytotoxicity against human Hep2 cells assessed as cell viability up to 125 ug/ml after 24 hrs by CCK8 assay relative to control; type: functional
Bos taurus [4] = organism: Bos taurus; test: Binding affinity to calf thymus DNA assessed as hypochromic effect by UV-vis absorption spectra analysis
Bos taurus [5] = organism: Bos taurus; test: Binding affinity to calf thymus DNA by UV-vis absorption spectra analysis
Bos taurus [6] = organism: Bos taurus; test: Induction of calf thymus DNA intercalation assessed as compound-DNA complex formation at 5 x 10^-5mol/L by fluorescence spectroscopic method
Bos taurus [7] = organism: Bos taurus; test: Induction of calf thymus DNA intercalation assessed as inhibition of neutral red binding to DNA by UV-vis absorption spectra analysis
Staphylococcus aureus [8] = test: Potency index, ratio of chloromycin MIC to compound MIC for methicillin-resistant Staphylococcus aureus N315; type: functional
Staphylococcus aureus [9] = test: Potency index, ratio of norfloxacin MIC to compound MIC for methicillin-resistant Staphylococcus aureus N315; type: functional

Compound: CCCCCCCn1c2ccc(-c3csc(N)n3)cc2c2cc(-c3csc(N)n3)ccc21
- MIC (Bacillus): 256 µg/mL (≈ 555 µM)
- MIC (Escherichia coli): 128 µg/mL (≈ 277 µM)
- MIC (Pseudomonas aeruginosa): 128 µg/mL (≈ 277 µM)
- MIC [1]: 128 µg/mL (≈ 277 µM)
- MIC (Staphylococcus aureus [2]): 4 µg/mL (≈ 8.66 µM)
- MIC (Staphylococcus aureus [3]): 16 µg/mL (≈ 34.7 µM)
- MIC (Bacillus spizizenii): 256 µg/mL (≈ 555 µM)
- MIC (Micrococcus luteus): 64 µg/mL (≈ 139 µM)
- MIC (Cyberlindnera jadinii): 256 µg/mL (≈ 555 µM)
- MIC (Aspergillus flavus): 256 µg/mL (≈ 555 µM)
- MIC (Saccharomyces cerevisiae): 128 µg/mL (≈ 277 µM)
- MIC (Candida albicans): 128 µg/mL (≈ 277 µM)
- MIC (Pichia norvegensis): 64 µg/mL (≈ 139 µM)
- Activity (HEp-2): 85%
- Activity (Bos taurus [4]): Dose-dependent effect
- K (Bos taurus [5]): 2.71 ×10⁴ L/mol
- Activity (Bos taurus [6]): Active
- inhibition (Bos taurus [7]): Dose-dependent effect
- Ratio (Staphylococcus aureus [8]): 16
- Ratio (Staphylococcus aureus [9]): 2
